From patent US20230026163A1, “ANTICANCER COMPOUND AND MEDICAL USE THEREOF” (ASCENTAWITS PHARMACEUTICALS, LTD., priority 2019, published 2023)

Legend:
Plasma stability, dog = type: in vitro ADME
Description: (§1) Frozen plasma was melted immediately in a water bath at 37° C. […] The supernatants were collected into new tubes, respectively. pH values of the plasma were checked and recorded. Note: a, no more 2 times melted plasma was used since the sample was received; b, the plasma in pH 7 to pH 8 was used.
(§2) 1 mM of working solution of the test compounds and the control compound, propantheline, were prepared in DMSO. 1 mM of working solution of the control compound in […] was prepared in acetonitrile. 4 μL of the working solutions were added to 796 μL of pre-incubated plasma respectively to achieve a final concentration of 5 μM. The final concentration of solvent was 0.5%.
(§3) […] The test was performed in duplicate. […] 50 μL of the labeled plasma was added to new tubes containing 300 μL of the quench solution of room temperature, i.e., the sample with a preparation time of 0. The samples were vortexed to mix for 5 minutes. […] 100 μL of the supernatant was transferred to new plates.

Plasma stability, mouse = type: in vitro ADME
Description: as §1, §2, §3

AA8 = assay: Cytotoxicity on cell lines of different species: AA8; type: cell-based
H460 = assay: Cytotoxicity on cell lines of different species: H460; type: cell-based; conditions: NCI-H460, 72 h; H460, Human; exposure time: 3 days
Plasma stability, rat = type: in vitro ADME
Description: as §1, §2, §3

[1] = Hepatomicrosome stability, dog; conditions: for Remaining percentage after 30 minutes: Dog, 2 μM
Description: 1a) With NADPH: 10 μL of 20 mg/mL of hepatomicrosome and 40 μL of 10 mM of NADPH were added to medium. The final concentrations of hepatomicrosome and NADPH were 0.5 mg/mL and 1 mM, respectively.
1b) Without NADPH: 10 μL of 20 mg/mL hepatomicrosome and 40 μL of ultra-pure H2O were added to medium. The final concentration of hepatomicrosome was 0.5 mg/mL.
3) 3) Aliquots of 50 μL from the reaction solutions at 0 minute and 30 minutes were taken. The reaction solutions were stopped by adding 4 volumes of cold acetonitrile and 4 internal standards (IS internal standard, 100 nM of Alprazolam, 200 nM of caffeine, 200 nM of Labetalol, and 2 μM of Ketoprofen) to stop the reaction solution. The samples were centrifuged at 3,220 g for 40 minutes. Aliquots of 100 μL of the supernatants were mixed with 100 μL of ultra-pure H2O. Then, the mixtures were used for LC-MS/MS analysis. All experiments were performed in duplicate. The test results were as follow.

UV41 cell line = assay: Cytotoxicity on UV41 cell line with DNA repair gene mutation (2 hours exposure, AlamarBlue); type: cell-based, Chinese hamster; conditions: Cricetulus griseus; UV41, 2 hours exposure, then 70 hours, normoxic
Description: UV41 cell line is a derivative of CHO-AA8 cell line, derived from the UV-sensitive line of AA8. The cell line is a cell line with damaged homologous recombination DNA repair enzymes and damaged nucleotide excision repair enzymes caused by mutations in ERCC4/XPF gene of DNA.
Specifically, the exponentially growing cells were seeded in 96-well plates at a density of 4×10^3 cells/well and incubated at 37° C., in 5% CO2, 95% air, and 100% relative humidity. Next, 24 hours later, the test compounds were added. The test compounds were dissolved in 100% DMSO at 200 times the desired final test concentration. Upon addition of the test compounds, the test compounds were further diluted with the complete medium to 4 times the desired final concentration. Aliquots of 50 μL of the compounds at specific concentrations were added to the microwells containing 150 μL of medium to obtain the final compound concentrations as reported. After the test compounds were added, the plates were incubated for an addition 2 hours at 37° C., in 5% CO2, 95% air, and 100% relative humidity. Then, the compounds were washed off, and fresh medium was added to the plates. The plates were incubated for an addition 70 hours at 37° C., in 5% CO2, 95% air, and 100% relative humidity. At the end of this incubation, AlamarBlue reagent was used to quantify viable cells.

Which results are given for `O=[N+]([O-])c1ccc(C(OP(=O)(N2CC2)N2CC2)C(F)(F)F)c2ccccc12` (stereo not shown) [Compound 01]?
Remaining percentage (Plasma stability, dog; Dog plasma, 5 μM, 37° C., after 30 minutes): 85.04%; Stability in plasma (conclusion) (Plasma stability, dog; dog): relatively stable; Remaining percentage (Plasma stability, mouse; Mouse plasma, 5 μM, 37° C., after 30 minutes): 55.07%; Stability in plasma (conclusion) (Plasma stability, mouse; mouse): relatively unstable; IC50 (AA8; CHO-AA8, 72 h, AA8, Rat, exposure time: 3 days): 11000 nM; Multiple: Rat/Human (AA8; IC50 AA8 / IC50 H460): 110; IC50 (H460): 100 nM; Remaining percentage (Plasma stability, rat; Rat plasma, 5 μM, 37° C., after 30 minutes): 52.11%; Stability in plasma (conclusion) (Plasma stability, rat; rat): relatively unstable; Remaining percentage after 30 minutes ([1]; with NADPH): 31.16%; Remaining percentage after 30 minutes ([1]; without NADPH): 101.62%; Stability in hepatomicrosomes (conclusion) ([1]; dog): unstable; IC50 (UV41 cell line): 340 nM
